{"source": "patent US7078389B2", "about": "“Chemically modified oligonucleotide for site-directed mutagenesis” (priority 1993, dated 2006)", "key": {"[1]": {"tested_on": "supF gene within the pSP189 SV40 vector", "assay": "SV40 mutagenesis: vector DNA passaged in COS-7 cells", "format": "cell-based, monkey", "method": "FIG. 3 is a schematic representation of the strategy for targeted mutagenesis of SV40 DNA. The 10 base triplex-forming oligonucleotide, psoralen-AG10 (4′hydroxymethyl-4,5′,8-trimethylpsoralen-5′[…]3′) (SEQ ID NO:1), is shown directly above its targeted sequence in the supF gene (base pairs 167–176), contained within the SV40 vector, pSP189. Psoralen-AG10 is incubated with the SV40 vector DNA to allow site-specific triplex formation. Photoactivation of the psoralen by irradiation with long wave ultraviolet light (320–400 nm) is designed to generate an adduct at the targeted base pair (167), as indicated by the arrow. The oligo-plasmid complex is then transfected into monkey COS-7 cells and allowed to replicate for 48 hours. Following purification of the vector DNA by the Hirt lysate procedure (Hirt et al., J. Mol. Biol. 26:365–369 (1967)), the DNA is used to transform E. coli SY204 lacZ125 (Am).\nSV40 mutagenesis. The SV40 vector DNA (pSP189) at 80 nM was incubated with psoralen-AG10 or psoralen-GA10 (ranging from 2 to 1000-fold molar excess) and irradiated as described above. The oligonucleotide-plasmid complex was then transfected into monkey COS-7 cells (ATCC #1651-CRL) using cationic liposomes (DOTAP, Boehringer Manheim, Indianapolis, Ind.) at a final concentration of 5 μg/ml in the culture dish. The DNA/oligo/liposome mixture was added dropwise to the cell culture dish with swirling. The following day, the media containing the liposome mixture was replaced by fresh media. Following 48 hours to allow repair and replication, SV40 vector DNA was harvested from the COS cells by the Hirt lysate procedure. Genetic analysis of the supF genes in the SV40 vector was carried out by transformation of E. coli SY204 [lacZ125(Am)] to ampicillin resistance by electroporation using 12–150 ng of Dpn I digested Hirt lysate DNA and a Bio-Rad Gene Pulser apparatus equipped with a Pulse Controller (Bio-Rad, Richmond, Calif.). Mutants were identified by growth in the presence of 65 μg/ml IPTG and 80 μg/ml X-Gal, as described by (Glazer et al., Mol. Cell Biol. 7:218–224 (1987)). These transformants were counted and the mutants (white colonies) were streaked for single colonies.\nIn this vector system, the SV40 DNA, after appropriate treatment, is introduced into monkey COS cells where repair and replication can occur, producing mutations indicative of mammalian processing of DNA damage. The small, circular vector DNA is recovered from the cells by biochemical separation from the chromosomal DNA (Hirt lysate, Hirt et al., J. Mol. Biol. 26:365–369 (1967)), and it is used to transform E. coli carrying the lacZ (amber) mutation to allow analysis of supF gene function by scoring colonies for β-galactosidase activity (produced via suppression of the amber mutation in lacZ) in the presence of the chromogenic substrate, X-gal. Vectors with wild type supF genes yield blue colonies; those with mutations in supF produce white ones. In order to eliminate misleading data that might arise from viral DNA that was not replicated or repaired in the mammalian cells, the viral DNA is digested before bacterial transformation with the enzyme Dpn I which will restrict DNA that has not been methylated by the mammalian pattern at its recognition site.\nThe design of the initial experiments to target mutations to SV40 DNA is illustrated in FIG. 3. A 10 base pair region of the supF gene (bp 167–176) was identified as a site amenable to triplex formation because of the homopurine/homopyrimidine run there. Since this run was G-rich, the purine motif for triplex formation was selected (Beal and Dervan, Science 251:1360–1363 (1991)), and an oligonucleotide, 5′[…]3′ (SEQ ID NO:2) (AG10) was synthesized based on this motif. A psoralen derivative, 4′-hydroxymethyl-4,5′,8-trimethylpsoralen, was attached to the oligonucleotide by a phosphodiester linkage at the 5′ adenine via a two carbon linker arm, with the goal of directing mutations to base pair 167."}, "[2]": {"tested_on": "lambda repressor (cI) gene", "assay": "Non-targeted mutagenesis of cI gene in lambda supF DNA", "set-up": "species or system lambda phage", "details": "for cI mutations per 1000 phage: lambda DNA 3 nM, oligonucleotide 3 μM, UVA 1.8 J/cm^2", "method": "(§1) Targeted mutagenesis was achieved by incubating pso-AG10 with lambda supF DNA in vitro to form triplex at positions 167 to 176 of the supF gene and bring the tethered psoralen into proximity with the targeted base pair at position 167 as shown in Table 1. The numbers in the table represent the frequency of mutations seen in either the supF gene or the cI gene in the lambda supF genome following the indicated treatment. The lambda DNA at 3 nM was incubated with or without a 1000-fold molar excess of the indicated oligonucleotides (3 μM) as described in FIG. 2.\n(§2) UVA (365 nm) irradiation of selected samples was performed at a dose of 1.8 J/cm^2. A radiometer was used to measure lamp output (typical UVA irradiance of 5–7 mW/cm^2 at 320–400 nm). The DNA was packaged in vitro into phage particles, using the method of Hohn, Methods in Enzymology 68:299–309 (1979), and the phage particles were adsorbed to E. coli and grown as individual plaques to allow genetic analyses of the supF and cI genes.\n(§3) Photoactivation of the psoralen generated a DNA adduct, and in vitro packaging of the psoralen-AG10. The lambda supF DNA complex allowed growth of the phage in bacteria to fix the adduct into a mutation. The phage particles were grown as individual plaques on a bacterial lawn to detect targeted mutagenesis in the supF gene and to measure the extent of non-targeted mutagenesis by screening for the function of an unrelated gene, the lambda repressor (cI) gene. Mutations in these genes yield colorless plaques among blue ones and clear plaques among turbid ones, respectively."}, "[3]": {"tested_on": "supF gene in lambda supF DNA", "assay": "Targeted mutagenesis of supF gene in lambda supF DNA (in vitro packaging, plaques on E. coli)", "details": "for supF mutations per 1000 phage: lambda DNA 3 nM; for supF mutation frequency: plus UVA 1.8 J/cm^2", "method": "as §1, §2, §3"}, "duplex supF DNA": {"tested_on": "duplex supF DNA", "assay": "UVA-induced covalent bond formation to duplex supF DNA", "format": "binding, E. coli", "details": "following UVA irradiation"}, "[4]": {"details": "ratio of oligo to vector 2:1, UVA 1.8 J/cm^2"}, "[5]": {"details": "ratio of oligo to vector 5:1, UVA 1.8 J/cm^2"}, "[6]": {"details": "ratio of oligo to vector 10:1, UVA 1.8 J/cm^2"}, "[7]": {"details": "ratio of oligo to vector 1000:1, no UVA"}, "[8]": {"details": "oligonucleotide 3 μM (1000-fold molar excess), UVA 1.8 J/cm^2"}}, "note": "“And” between values parts separate entries of the source, which are not always exact repeats. Equal values may be shown once.", "data": [{"substance": "pso-^5′GGGGGAAGGA^3′ (DNA NGGGGGAAGGA; psoralen conjugated at 5' end, further chemistry not given here) [pso-GA10, reference compound]", "values": [{"measurement": "supF mutagenesis relative to background", "setting": "[1]; lower ratios of oligo to vector (below 1000:1), plus UVA", "result": "no significant mutagenesis above the background frequency"}, {"measurement": "% mutants (supF gene)", "setting": "[1]; [4]", "result": 0.07, "unit": "%"}, {"measurement": "% mutants (supF gene)", "setting": "[1]; [5]", "result": 0.13, "unit": "%"}, {"measurement": "% mutants (supF gene)", "setting": "[1]; [6]", "result": 0.06, "unit": "%"}, {"measurement": "% mutants (supF gene)", "setting": "[1]; ratio of oligo to vector 1000:1, UVA 1.8 J/cm^2, listed as psoralen-GA10", "result": "0.5% and 0.63%"}, {"measurement": "% mutants (supF gene)", "setting": "[1]; [7]", "result": "≦0.07%"}, {"measurement": "Mutants per total colonies", "setting": "[1]; [7]", "result": "0/1500"}, {"measurement": "cI mutations per 1000 phage", "setting": "[2]", "result": "0.019 (9/483,475) per 1000 phage"}, {"measurement": "supF mutations per 1000 phage", "setting": "[3]; [8]", "result": "0.004 (2/504.198) per 1000 phage"}, {"measurement": "Difference between supF and cI mutation frequency", "setting": "[3]; plus UVA", "result": 5, "unit": "fold"}, {"measurement": "Fold lower frequency of supF mutations than pso-AG10", "setting": "[3]; plus UVA", "result": 582, "unit": "fold"}, {"measurement": "Mutagenesis relative to background (untreated lambda DNA)", "setting": "[3]; plus UVA", "result": "barely above background"}, {"measurement": "supF mutation frequency", "setting": "[3]", "result": 0.0004, "unit": "%"}, {"measurement": "Covalent bond to labeled duplex supF DNA", "setting": "duplex supF DNA", "result": "did not"}]}, {"substance": "4′-hydroxymethyl-4,5′,8-trimethylpsoralen-^5′AGGAAGGGGG^3′ (DNA NAGGAAGGGGG; 4'-hydroxymethyl-4,5',8-trimethylpsoralen conjugated at 5' end, further chemistry not given here) [pso-AG10]", "values": [{"measurement": "Fold higher targeted mutagenesis in SV40 than in bacteriophage lambda grown in E. coli", "setting": "[1]; 6% to 7% versus 0.23%", "result": 30, "unit": "fold"}, {"measurement": "% mutants (supF gene)", "setting": "[1]; [4]", "result": 2.5, "unit": "%"}, {"measurement": "% mutants (supF gene)", "setting": "[1]; [5]", "result": 4.3, "unit": "%"}, {"measurement": "% mutants (supF gene)", "setting": "[1]; [6]", "result": 6.4, "unit": "%"}, {"measurement": "% mutants (supF gene)", "setting": "[1]; ratio of oligo to vector 1000:1, UVA 1.8 J/cm^2", "result": 7.3, "unit": "%"}, {"measurement": "% mutants (supF gene)", "setting": "[1]; [7]", "result": "≦0.06%"}, {"measurement": "Mutants per total colonies", "setting": "[1]; [7]", "result": "0/1700"}, {"measurement": "cI mutations per 1000 phage", "setting": "[2]", "result": "0.024 (28/1,162,000) per 1000 phage"}, {"measurement": "cI mutation frequency", "setting": "[2]; plus UVA 1.8 J/cm^2", "result": 0.0024, "unit": "%"}, {"measurement": "supF mutations per 1000 phage", "setting": "[3]; [8]", "result": "2.33 (263/112.872) per 1000 phage"}, {"measurement": "supF mutations per 1000 phage", "setting": "[3]; oligonucleotide 3 μM, no UVA", "result": "<0.014 (0/69.000) per 1000 phage"}, {"measurement": "supF mutagenesis without UVA", "setting": "[3]; no UVA", "result": "No significant mutagenesis"}, {"measurement": "Difference between supF and cI mutation frequency", "setting": "[3]; plus UVA", "result": "approximately 100 fold"}, {"measurement": "Specificity of targeted mutagenesis considering target size of cI (765 bp) and supF (184 bp)", "setting": "[3]; plus UVA", "result": "≤ 500", "unit": "fold"}, {"measurement": "supF mutation frequency", "setting": "[3]", "result": 0.233, "unit": "%"}, {"measurement": "Covalent bond to labeled duplex supF DNA", "setting": "duplex supF DNA", "result": "formed a covalent bond to labeled duplex supF DNA following UVA irradiation"}]}]}
